Measurements taken from US5936105A, “14-EPI-19-nor-vitamin D compounds and methods” (Tetrionics, Inc., priority 1998, dated 1999).
“Also recorded” adds a separate entry of the source.

Tests used:
D deficient rat [1] = assay: In vivo calcemic activity: serum calcium / bone calcium mobilization (atomic absorption spectroscopy); conditions: for SERUM CALCIUM: intraperitoneal, mean ± SEM; for effect on bone, in words: rat, in vivo
Description: (§1) In vivo Calcemic Activity
(§2) These studies were carried out with five to six rats per group. Male weanling rats were fed a vitamin D-deficient diet for one week and then shifted to the same diet but with calcium removed for three weeks. The hypocalcemic rats were dosed intraperitoneally with the indicated dose of compound per day for a total of 7 days. Twenty-four hours after the last dose all animals were killed by decapitation and serum calcium was measured by atomic absorption spectroscopy in the presence of 1.0% lanthanium chloride. Intestinal calcium transport was measureed by the everted gut sac technique of Martin and Deluca.

D deficient rat [2] = assay: In vivo calcemic activity: intestinal calcium transport (everted gut sac technique); conditions: for TRANSPORT (S/M): intraperitoneal, mean ± SEM
Description: as §1, §2

leukemia cells = conditions: U.S. Pat. No. 4,391,802; cited from earlier work
[3] = biological target: T1, Procine Intestinal Nuclear Vitamin D Receptor (Sus scrofa, UniProt A3RGC1); assay: biochemical
T1 sequence (A3RGC1 1-427): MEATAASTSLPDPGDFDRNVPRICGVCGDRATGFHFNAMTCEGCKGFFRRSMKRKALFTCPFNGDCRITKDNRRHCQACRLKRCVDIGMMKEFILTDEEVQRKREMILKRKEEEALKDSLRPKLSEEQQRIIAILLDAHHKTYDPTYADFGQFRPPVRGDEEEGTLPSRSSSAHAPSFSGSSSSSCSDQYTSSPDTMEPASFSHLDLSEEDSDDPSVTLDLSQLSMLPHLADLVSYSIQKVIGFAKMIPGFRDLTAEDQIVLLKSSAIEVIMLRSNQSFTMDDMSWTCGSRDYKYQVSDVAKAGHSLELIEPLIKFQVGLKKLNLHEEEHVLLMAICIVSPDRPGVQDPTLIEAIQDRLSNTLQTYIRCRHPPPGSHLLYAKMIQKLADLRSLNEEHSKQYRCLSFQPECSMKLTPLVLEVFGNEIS
Description: Binding to the Procine Intestinal Nuclear Vitamin D Receptor.

HL-60 cells [4] = assay: Differentiation of HL-60 cells (NBT reduction assay); assay type: cell-based, human; conditions: for Activity vs. 1,25(OH)2 D3: HL-60 differentiation, ratio to 1,25(OH)2 D3; for EC50: Homo sapiens, read-out: EC50 (concentration to induce differentiation in 50% of the cells; text: IC50), NBT reduction, HL-60; for in vitro differentiative (D) and anti-proliferative (I) activity, in words: HL-60, differentiation and proliferation; for differentiative activity (D) used for T.P.: relative to 1,25-(OH)2 D3
Description: Differentiation of HL-60 Cells.
The ability of the 14-epi-19-nor-vitamin analogs and the corresponding 19-nor-vitamin D analogs to induce differentiation in the human HL-60 promyelocyte cell line was measured by a nitroblue tetrazolium (NBT) reduction assay.

HL-60 cells [5] = assay: Inhibition of HL-60 cell proliferation (thymidine incorporation assay); assay type: cell-based, human; conditions: for Activity vs. 1,25(OH)2 D3: HL-60 proliferation, ratio to 1,25(OH)2 D3; for EC50: Homo sapiens, read-out: EC50 (50% reduction in thymidine incorporation; text: IC50), thymidine incorporation, HL-60; for anti-proliferative activity (I) used for T.P.: relative to 1,25-(OH)2 D3
Description: Inhibition of HL-60 Cell Proliferation.
The ability of the 14-epi-19-nor-vitamin D analogs and the corresponding 19-nor-vitamin D analogs to inhibit proliferation of the HL-60 cell line was measured by thymidine incorporation assay.

[6] = biological target: T1, Procine Intestinal Nuclear Vitamin D Receptor; conditions: VDR binding, ratio to 1,25(OH)2 D3
D deficient rat [7] = assay: In vivo calcemic activity, overall; conditions: for calcemic activity used for T.P.: relative to 1,25-(OH)2 D3; for calcemic activity, in words: relative to 1,25-(OH)2 D3 or 19-nor compounds
Description: as §1, §2

D deficient rat [8] = assay: In vivo activation of pro-drug (25-hydroxylation by the liver); conditions: inferred from in vivo activity
Description: as §2
The in vivo results also establish the PRO-DRUG concept for the 14-epi-19-nor-25-deoxy-analog. […] This minimal bone activity resulting in lower calcemic toxicity may have important clinical implications.

[9] = TABLE 2, 250 pmol/d/7 days, 5 rats
[10] = TABLE 3, 260 pmol/d/7 days, 6 rats
[11] = TABLE 2, 625 pmol/d/7 days, 5 rats
[12] = TABLE 2, 1300 pmol/d/7 days, 5 rats
[13] = TABLE 1, 250 pmol/d/7 days, 5 rats
[14] = TABLE 1, 625 pmol/d/7 days, 5 rats
[15] = TABLE 3, 625 pmol/d/7 days, 6 rats
[16] = TABLE 3, 1300 pmol/d/7 days, 6 rats
[17] = TABLE 1, 1300 pmol/d/7 days, 5 rats

Compound	SERUM CALCIUM (D deficient rat [1]; [9])	SERUM CALCIUM (D deficient rat [1]; [10])	TRANSPORT (S/M) (D deficient rat [2]; [9])	TRANSPORT (S/M) (D deficient rat [2]; [10])	SERUM CALCIUM (D deficient rat [1]; [11])	SERUM CALCIUM (D deficient rat [1]; [12])	EC50 [3]	Activity vs. 1,25(OH)2 D3 (HL-60 cells [4])	EC50 (HL-60 cells [4])	TRANSPORT (S/M) (D deficient rat [2]; [11])	TRANSPORT (S/M) (D deficient rat [2]; [12])	Activity vs. 1,25(OH)2 D3 (HL-60 cells [5])	EC50 (HL-60 cells [5])	Activity vs. 1,25(OH)2 D3 [6]	SERUM CALCIUM (D deficient rat [1]; [13])	SERUM CALCIUM (D deficient rat [1]; [14])	TRANSPORT (S/M) (D deficient rat [2]; [13])	TRANSPORT (S/M) (D deficient rat [2]; [14])	further results
C=C1/C(=C\C=C2/CCC[C@]3(C)[C@@H]([C@H](C)CCCC(C)(C)O)CC[C@@H]23)C[C@@H](O)C[C@@H]1O [1,25(OH)2 D3, 1α,25-dihydroxyvitamin D3]	5.3 ± 0.3 mg/100 ml	5.36 ± 0.27 mg/100 ml	7.8 ± 0.4 S/M	7.18 ± 0.47 S/M	–	–	–	–	–	–	–	–	–	–	–	–	–	–	antileukemic activity (induction of differentiation), in words (leukemia cells): potent antileukemic activity
C[C@H](CCCC(C)(C)O)[C@H]1CC[C@H]2/C(=C/C=C3C[C@@H](O)C[C@H](O)C3)CCC[C@]12C [19-nor-1,25(OH)2 D3, 19-nor-1,25-dihydroxyvitamin D3, reference compound]	3.6 ± 0.1 mg/100 ml	–	4.8 ± 0.4 S/M	–	3.6 ± 0.2 mg/100 ml	3.7 ± 0.2 mg/100 ml	4.2 nM	0.40	13 nM	4.9 ± 0.5 S/M	4.8 ± 0.5 S/M	0.5	60 nM	0.2	–	–	–	–	–
C[C@H](CCCC(C)(C)O)[C@H]1CC[C@@H]2/C(=C/C=C3C[C@@H](O)C[C@H](O)C3)CCC[C@@]21C [[27], 14-epi-19-nor-1α,25-dihydroxyvitamin D3]	3.6 ± 0.2 mg/100 ml	–	4.1 ± 0.4 S/M	–	3.2 ± 0.1 mg/100 ml	3.4 ± 0.1 mg/100 ml	4.5 nM	0.33	15 nM	3.2 ± 0.4 S/M	3.5 ± 0.3 S/M	0.4	80 nM	0.18	–	–	–	–	in vitro differentiative (D) and anti-proliferative (I) activity, in words (HL-60 cells [4]): approximately half as active as 1,25-(OH)2 D3; differentiative activity (D) used for T.P. (HL-60 cells [4]): 0.33; cellular activity, in words (HL-60 cells [4]; relative to native hormone): cellular activity similar to the native hormone; anti-proliferative activity (I) used for T.P. (HL-60 cells [5]): 0.4; calcemic activity relative to the natural hormone (D deficient rat [7]; 5× the dose of 1,25-(OH)2 D3): less than 20%; calcemic activity used for T.P. (D deficient rat [7]): < 0.2; calcemic activity, in words (D deficient rat [7]): no calcemic activity at 5× the dose of 1,25-(OH)2 D3; also recorded: greatly reduced calcemic activity
CC(C)CCC[C@@H](C)[C@H]1CC[C@H]2/C(=C/C=C3C[C@@H](O)C[C@H](O)C3)CCC[C@]12C [19-nor-1(OH)D3]	–	–	–	–	–	–	–	–	–	–	–	–	–	–	3.4 ± 0.2 mg/100 ml	3.7 ± 0.2 mg/100 ml	6.3 ± 0.7 S/M	8.6 ± 0.7 S/M	–
C[C@@H](CCCC(C)(C)O)[C@H]1CC[C@@H]2/C(=C/C=C3C[C@@H](O)C[C@H](O)C3)CCC[C@@]21C [[29], 14-epi-20-epi-19-nor-1α,25-dihydroxyvitamin D3]	–	4.02 ± 0.16 mg/100 ml	–	4.36 ± 0.30 S/M	–	–	2.5 nM	10.0	0.5 nM	–	–	45	0.66 nM	0.33	–	–	–	–	SERUM CALCIUM (D deficient rat [1]; [15]): 3.66 ± 0.06 mg/100 ml; SERUM CALCIUM (D deficient rat [1]; [16]): 4.10 ± 0.20 mg/100 ml; effect on bone, in words (D deficient rat [1]): no effect on bone at any of the doses tested; in vitro differentiative (D) and anti-proliferative (I) activity, in words (HL-60 cells [4]): most potent analog; times more potent than 1,25-(OH)2 D3 (D) (HL-60 cells [4]; differentiative (D)): 10 times; differentiative activity (D) used for T.P. (HL-60 cells [4]): 8.0; TRANSPORT (S/M) (D deficient rat [2]; [15]): 6.94 ± 0.27 S/M; TRANSPORT (S/M) (D deficient rat [2]; [16]): 7.14 ± 0.44 S/M; activity on gut, in words (D deficient rat [2]; rat, in vivo): only minimal gut activity; gut activity relative to the natural hormone (D deficient rat [2]; rat, in vivo): 20%; times more potent than 1,25-(OH)2 D3 (I) (HL-60 cells [5]; anti-proliferative (I)): 45 times; anti-proliferative activity (I) used for T.P. (HL-60 cells [5]): 56; calcemic activity used for T.P. (D deficient rat [7]): < 0.2; calcemic activity, in words (D deficient rat [7]): greatly reduced
CC(C)CCC[C@H](C)[C@H]1CC[C@@H]2/C(=C/C=C3C[C@@H](O)C[C@H](O)C3)CCC[C@@]21C [[28], 14-epi-20-epi-19-nor-1α-hydroxyvitamin D3]	–	3.96 ± 0.05 mg/100 ml	–	3.80 ± 0.23 S/M	–	–	> 1000 nM	–	–	–	–	–	–	< 0.0008	–	–	–	–	SERUM CALCIUM (D deficient rat [1]; [15]): 4.11 ± 0.10 mg/100 ml; SERUM CALCIUM (D deficient rat [1]; [16]): 3.79 ± 0.05 mg/100 ml; effect on bone, in words (D deficient rat [1]): no activity on bone; TRANSPORT (S/M) (D deficient rat [2]; [15]): 5.14 ± 0.66 S/M; TRANSPORT (S/M) (D deficient rat [2]; [16]): 5.90 ± 0.49 S/M; activity on gut, in words (D deficient rat [2]; rat, in vivo): reduced activity on gut compared to the 25-hydroxy drug compound; in vivo activation / 25-hydroxylation / clearance, in words (D deficient rat [8]): has been 25-hydroxylated by the liver; also recorded: activated in vivo to the active drug product
C[C@@H](CCCC(C)(C)O)[C@H]1CC[C@H]2/C(=C/C=C3C[C@@H](O)C[C@H](O)C3)CCC[C@]12C [20-epi-19-nor-1,25(OH)2 D3, reference compound]	5.7 ± 0.5 mg/100 ml	–	7.3 ± 0.1 S/M	–	6.3 ± 0.4 mg/100 ml	6.6 ± 0.5 mg/100 ml	0.8 nM	25	0.2 nM	8.2 ± 0.7 S/M	8.7 ± 0.7 S/M	7.5	4 nM	1.0	–	–	–	–	–
CC(C)CCC[C@H](C)[C@H]1CC[C@H]2/C(=C/C=C3C[C@@H](O)C[C@H](O)C3)CCC[C@]12C [20-epi-19-nor-1(OH)D3]	–	–	–	–	–	–	600 nM	–	–	–	–	–	–	0.0013	4.1 ± 0.1 mg/100 ml	5.4 ± 0.3 mg/100 ml	7.6 ± 0.5 S/M	9.2 ± 1.1 S/M	SERUM CALCIUM (D deficient rat [1]; [17]): 6.7 ± 0.2 mg/100 ml; TRANSPORT (S/M) (D deficient rat [2]; [17]): 11.7 ± 1.4 S/M
C=C1/C(=C\C=C2/CCC[C@]3(C)[C@@H]([C@H](C)CCCC(C)C)CC[C@@H]23)C[C@@H](O)C[C@@H]1O [1(OH)D3, 1α-hydroxyvitamin D3]	–	–	–	–	–	–	–	–	–	–	–	–	–	–	4.8 ± 0.3 mg/100 ml	5.9 ± 0.1 mg/100 ml	8.1 ± 0.1 S/M	10.6 ± 1.4 S/M	antileukemic activity (induction of differentiation), in words (leukemia cells): potent antileukemic activity
